Measurements: US12084419B2, “Cell metabolism modulating compounds and uses thereof” (CRESCENTA BIOSCIENCES, priority 2020, dated 2024)

Biological target: T1, His6 tagged human recombinant FABP4 (Homo sapiens, UniProt P15090)
T1 construct: purchased Cayman Chemicals 10009549
Assay: FABP4 TR-FRET assay: displacement of BODIPY FL C12 fatty acid
Conditions: triplicates, inhibition of BODIPY FL C12 binding; for inhibition at 1 µM: 1 μM compound; for inhibition at 10 µM: 10 μM compound
Summary of the method: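 TR-FRET with a Tb anti-His6 antibody donor and BODIPY FL C12 as acceptor; compounds came from 0.362 and 0.0362 mM DMSO stocks. Protein (83 nM) and antibody (49.6 nM) solutions were premixed 30 min on ice in 25 mM Tris pH 7.4 with γ-globulins, NP-40 and DTT. Incubation was 10 min at room temperature; inhibition came from the 520/615 nm ratio.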

T1 sequence (P15090 whole entry): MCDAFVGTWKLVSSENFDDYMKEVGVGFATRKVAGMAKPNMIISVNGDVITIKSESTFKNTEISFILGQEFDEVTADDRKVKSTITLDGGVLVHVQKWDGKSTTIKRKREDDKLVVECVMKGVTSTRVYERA

SMILES	inhibition at 1 µM [%]	inhibition at 10 µM [%]
CCCCC1CCCc2c1n(Cc1cccc(C#N)c1)c1c(C(=O)O)cccc21 (stereo not shown) [1-butyl-9-[(3-cyanophenyl)methyl]-2,3,4,9-tetrahydro-1H-carbazole-8-carboxylic acid]	58	93.7
CCCCCCC1CCCc2c(n(Cc3ccc(F)cc3)c3c(C(=O)O)cccc23)C1 (stereo not shown) [5-[(4-fluorophenyl)methyl]-7-hexyl-5H,6H,7H,8H,9H,10H-cyclohepta[b]indole-4-carboxylic acid]	74.4	77.6
CCCCCC1CCc2c(c3cccc(C(=O)O)c3n2Cc2cccc(C(N)=O)c2)C1 (stereo not shown) [9-[(3-carbamoylphenyl)methyl]-3-pentyl-2,3,4,9-tetrahydro-1H-carbazole-8-carboxylic acid]	90.9	98.4
CCCCC1CCCc2c(n(Cc3ccccc3C#N)c3c(C(=O)O)cccc23)C1 (stereo not shown) [7-butyl-5-[(2-cyanophenyl)methyl]-5H,6H,7H,8H,9H,10H-cyclohepta[b]indole-4-carboxylic acid]	91.5	87.3
CCCCCC1CCCc2c(n(Cc3cccc(C#N)c3)c3c(C(=O)O)cccc23)C1 (stereo not shown) [5-[(3-cyanophenyl)methyl]-7-pentyl-5H,6H,7H,8H,9H,10H-cyclohepta[b]indole-4-carboxylic acid]	100	96.1
CCCCC1CCc2c(n(Cc3cccc(C(N)=O)c3)c3c(C(=O)O)cccc23)C1 (stereo not shown) [2-butyl-9-[(3-carbamoylphenyl)methyl]-2,3,4,9-tetrahydro-1H-carbazole-8-carboxylic acid]	88.5	95.5
CCCCCC1CCc2c(n(Cc3cccc(C#N)c3)c3c(C(=O)O)cccc23)C1 (stereo not shown) [9-[(3-cyanophenyl)methyl]-2-pentyl-2,3,4,9-tetrahydro-1H-carbazole-8-carboxylic acid]	60.8	77.1
CCCCCCC1CCCc2c(n(Cc3cccc(C(=O)O)c3)c3c(C(=O)O)cccc23)C1 (stereo not shown) [5-[(3-carboxyphenyl)methyl]-7-hexyl-5H,6H,7H,8H,9H,10H-cyclohepta[b]indole-4-carboxylic acid]	89.8	89.2
CCCCC1CCCCc2c1n(Cc1cccc(C(N)=O)c1)c1c(C(=O)O)cccc21 (stereo not shown) [6-butyl-5-[(3-carbamoylphenyl)methyl]-5H,6H,7H,8H,9H,10H-cyclohepta[b]indole-4-carboxylic acid]	91.4	95.2
CCCC1CCc2c(n(Cc3cccc(C(N)=O)c3)c3c(C(=O)O)cccc23)C1 (stereo not shown) [9-[(3-carbamoylphenyl)methyl]-2-propyl-2,3,4,9-tetrahydro-1H-carbazole-8-carboxylic acid]	83.6	88
NC(=O)c1cccc(Cn2c3c(c4cccc(C(=O)O)c42)CCC(CCc2ccccc2)C3)c1 (stereo not shown) [9-[(3-carbamoylphenyl)methyl]-2-(2-phenylethyl)-2,3,4,9-tetrahydro-1H-carbazole-8-carboxylic acid]	98.4	94.1
CCCCCCC1CCCc2c(n(Cc3ccccc3C(N)=O)c3c(C(=O)O)cccc23)C1 (stereo not shown) [5-[(2-carbamoylphenyl)methyl]-7-hexyl-5H,6H,7H,8H,9H,10H-cyclohepta[b]indole-4-carboxylic acid]	79.2	82
CCCCCC1CCCCc2c1c1cccc(C(=O)O)c1n2Cc1cccc(C#N)c1 (stereo not shown) [5-[(3-cyanophenyl)methyl]-10-pentyl-5H,6H,7H,8H,9H,10H-cyclohepta[b]indole-4-carboxylic acid]	44.3	77
CCCCCCC1CCCc2c(n(Cc3ccc(C#N)cc3)c3c(C(=O)O)cccc23)C1 (stereo not shown) [5-[(4-cyanophenyl)methyl]-7-hexyl-5H,6H,7H,8H,9H,10H-cyclohepta[b]indole-4-carboxylic acid]	81.3	84.7
CCCCC1CCc2c1n(Cc1cccc(C#N)c1)c1c(C(=O)O)cccc21 (stereo not shown) [3-butyl-4-[(3-cyanophenyl)methyl]-1H,2H,3H,4H-cyclopenta[b]indole-5-carboxylic acid]	85.1	98.5
CCC1CCc2c(c3cccc(C(=O)O)c3n2Cc2cccc(C(N)=O)c2)C1 (stereo not shown) [9-[(3-carbamoylphenyl)methyl]-3-ethyl-2,3,4,9-tetrahydro-1H-carbazole-8-carboxylic acid]	98.2	103
CCCCC1CCCc2c(n(Cc3cccc(OC)c3)c3c(C(=O)O)cccc23)C1 (stereo not shown) [7-butyl-5-[(3-methoxyphenyl)methyl]-5H,6H,7H,8H,9H,10H-cyclohepta[b]indole-4-carboxylic acid]	91.7	86.5
CCCCCC1CCc2c(c3cccc(C(=O)O)c3n2Cc2cccc(C#N)c2)C1 (stereo not shown) [9-[(3-cyanophenyl)methyl]-3-pentyl-2,3,4,9-tetrahydro-1H-carbazole-8-carboxylic acid]	57.4	83.3
CCC1CCCCc2c1c1cccc(C(=O)O)c1n2Cc1cccc(C(N)=O)c1 (stereo not shown) [5-[(3-carbamoylphenyl)methyl]-10-ethyl-5H,6H,7H,8H,9H,10H-cyclohepta[b]indole-4-carboxylic acid]	86.4	98
CCCCCCC1CCCc2c(n(Cc3cccc(F)c3)c3c(C(=O)O)cccc23)C1 (stereo not shown) [5-[(3-fluorophenyl)methyl]-7-hexyl-5H,6H,7H,8H,9H,10H-cyclohepta[b]indole-4-carboxylic acid]	93.6	92.9
CCCCC1CCCCc2c1c1cccc(C(=O)O)c1n2Cc1cccc(C#N)c1 (stereo not shown) [10-butyl-5-[(3-cyanophenyl)methyl]-5H,6H,7H,8H,9H,10H-cyclohepta[b]indole-4-carboxylic acid]	30.9	73.6
CCCCCCC1CCc2c(n(Cc3ccnc(OC)c3)c3c(C(=O)O)cccc23)C1 (stereo not shown) [2-hexyl-9-[(2-methoxypyridin-4-yl)methyl]-2,3,4,9-tetrahydro-1H-carbazole-8-carboxylic acid]	44.2	77.8
CCCCCCC1CCCc2c(n(Cc3ccccc3F)c3c(C(=O)O)cccc23)C1 (stereo not shown) [5-[(2-fluorophenyl)methyl]-7-hexyl-5H,6H,7H,8H,9H,10H-cyclohepta[b]indole-4-carboxylic acid]	77.5	87.3
CCCCCCC1CCCc2c(n(Cc3cccc(Cl)c3)c3c(C(=O)O)cccc23)C1 (stereo not shown) [5-[(3-chlorophenyl)methyl]-7-hexyl-5H,6H,7H,8H,9H,10H-cyclohepta[b]indole-4-carboxylic acid]	103	45.9
CCCCC1CCCc2c1n(Cc1cccc(C(N)=O)c1)c1c(C(=O)O)cccc21 (stereo not shown) [1-butyl-9-[(3-carbamoylphenyl)methyl]-2,3,4,9-tetrahydro-1H-carbazole-8-carboxylic acid]	83	86.2
CCCCCC1CCCc2c1c1cccc(C(=O)O)c1n2Cc1cccc(C#N)c1 (stereo not shown) [9-[(3-cyanophenyl)methyl]-4-pentyl-2,3,4,9-tetrahydro-1H-carbazole-8-carboxylic acid]	26.3	73.7
